Assay results taken from patent US12466822B2, “Heterocyclic compounds as immunomodulators” (Incyte Corporation, priority 2016, dated 2025).

Biological target: T1, PD-1/PD-L1 protein/protein interaction (recombinant human PD-L1 protein (19-238), recombinant human PD-1 protein (25-167)) (Homo sapiens, UniProt Q9NZQ7)
T1 construct: Recombinant human PD-L1 protein (19-238) with a His-tag at the C-terminus; purchased AcroBiosystems PD1-H5229 (PD-L1-His); PD1-H5257 (PD-1-Fc)
Experiment: PD-1/PD-L1 Homogeneous Time-Resolved Fluorescence (HTRF) Binding Assay
Settings: 25° C., PBS buffer (pH 7.4), 40 minutes preincubation with inhibitors
Summary of the method: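 HTRF read-out (665/620 nm) after 60 min at 25 °C with 1 nM Eu anti-human IgG and 20 nM APC anti-His. Beforehand, inhibitors were preincubated 40 min with Fc-PD-1 (25-167, […] as listed) and His-PD-L1 (19-238, 10 nM) in PBS pH 7.4 with Tween-20, BSA, 1% DMSO; IC50 from log-concentration curve.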

T1 sequence (Q9NZQ7 19-238): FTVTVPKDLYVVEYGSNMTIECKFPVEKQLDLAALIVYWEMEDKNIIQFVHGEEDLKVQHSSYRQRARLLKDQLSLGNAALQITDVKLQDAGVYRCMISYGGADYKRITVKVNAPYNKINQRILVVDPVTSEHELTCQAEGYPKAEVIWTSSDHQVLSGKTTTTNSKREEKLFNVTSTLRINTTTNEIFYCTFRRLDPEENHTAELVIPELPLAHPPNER

Row | IC50 | Structure (SMILES)
1 | ≤ 0.01 µM | Cn1cc(CNCCO)cc(C(=O)Nc2cccc(-c3cccc(Nc4nccc5cc(CN6CC(C(=O)O)C6)cnc45)c3Cl)c2Cl)c1=O [Example 17, 1-((8-(2,2′-dichloro-3′-(5-((2-hydroxyethylamino)methyl)-1-methyl-2-oxo-1,2-dihydropyridine-3-carboxamido)biphenyl-3-ylamino)-1,7-naphthyridin-3-yl)methyl)azetidine-3-carboxylic acid]
2 | ≤ 0.01 µM | Cc1c(Nc2nccc3cc(CN4CC[C@@H](O)C4)cnc23)cccc1-c1cccc(Nc2ncnc3cc(CNCCO)cnc23)c1C [Example 24, (R)-1-((8-(3′-(7-((2-hydroxyethylamino)methyl)pyrido[3,2-d]pyrimidin-4-ylamino)-2,2′-dimethylbiphenyl-3-ylamino)-1,7-naphthyridin-3-yl)methyl)pyrrolidin-3-ol]
3 | ≤ 0.01 µM | Cc1c(Nc2nccc3cc(CN4CC[C@H](O)C4)cnc23)cccc1-c1cccc(Nc2nccc3cc(CN4CC[C@@H](C(=O)O)C4)cnc23)c1C [Example 12, (R)-1-((8-((3′-((3-(((S)-3-hydroxypyrrolidin-1-yl)methyl)-1,7-naphthyridin-8-yl)amino)-2,2′-dimethyl-[1,1′-biphenyl]-3-yl)amino)-1,7-naphthyridin-3-yl)methyl)pyrrolidine-3-carboxylic acid]
4 | ≤ 0.01 µM | Cc1c(Nc2nccc3cc(CN4CC[C@@H](C(=O)O)C4)cnc23)cccc1-c1cccc(NC(=O)c2nc3c(n2C)CCN(C)C3)c1Cl [Example 31, (R)-1-((8-(2′-chloro-3′-(1,5-dimethyl-4,5,6,7-tetrahydro-1H-imidazo[4,5-c]pyridine-2-carboxamido)-2-methylbiphenyl-3-ylamino)-1,7-naphthyridin-3-yl)methyl)pyrrolidine-3-carboxylic acid]
5 | ≤ 0.01 µM | Cc1c(Nc2nccc3cc(CN4CC[C@H](O)C4)cnc23)cccc1-c1cccc(Nc2nccc3cc(CN4CC[C@H](C(=O)O)C4)cnc23)c1C [Example 13, (S)-1-((8-((3′-((3-(((S)-3-hydroxypyrrolidin-1-yl)methyl)-1,7-naphthyridin-8-yl)amino)-2,2′-dimethyl-[1,1′-biphenyl]-3-yl)amino)-1,7-naphthyridin-3-yl)methyl)pyrrolidine-3-carboxylic acid]
6 | ≤ 0.01 µM | Cc1c(Nc2ncnc3cc(CN4CC[C@@H](O)C4)cnc23)cccc1-c1cccc(NC(=O)c2nc3c(n2C)CCN(C[C@H]2CC[C@H](C(=O)O)CC2)C3)c1Cl [Example 69, trans 4-((2-(2-chloro-3′-(7-(((R)-3-hydroxypyrrolidin-1-yl)methyl)pyrido[3,2-d]pyrimidin-4-ylamino)-2′-methylbiphenyl-3-ylcarbamoyl)-1-methyl-6,7-dihydro-1H-imidazo[4,5-c]pyridin-5(4H)-yl)methyl)cyclohexanecarboxylic acid]
7 | ≤ 0.01 µM | Cc1c(Nc2nccc3cc(CN4CC[C@@H](O)C4)cnc23)cccc1-c1cccc(NC(=O)c2nc3c(n2C)CCN(C(C)CC(=O)O)C3)c1Cl (stereo partly drawn) [Example 54, 3-(2-(2-chloro-3′-(3-(((R)-3-hydroxypyrrolidin-1-yl)methyl)-1,7-naphthyridin-8-ylamino)-2′-methylbiphenyl-3-ylcarbamoyl)-1-methyl-6,7-dihydro-1H-imidazo[4,5-c]pyridin-5(4H)-yl)butanoic acid]
8 | ≤ 0.01 µM | Cc1c(NC(=O)c2nc3c(n2C)CCN(C2CCC(C(=O)O)CC2)C3)cccc1-c1cccc(Nc2nccc3cc(CN4CC[C@@H](O)C4)cnc23)c1C (single isomer, unassigned) [Example 64-peak1]
9 | ≤ 0.01 µM | Cc1c(Nc2nccc3cc(CN4CC[C@@H](O)C4)cnc23)cccc1-c1cccc(-c2nc3c(o2)CN(C(=O)CN2CCCC[C@H]2C(=O)O)C3)c1C [Example 42, (S)-1-(2-(2-(3′-((3-(((R)-3-hydroxypyrrolidin-1-yl)methyl)-1,7-naphthyridin-8-yl)amino)-2,2′-dimethyl-[1,1′-biphenyl]-3-yl)-4,6-dihydro-5H-pyrrolo[3,4-d]oxazol-5-yl)-2-oxoethyl)piperidine-2-carboxylic acid]
10 | ≤ 0.01 µM | Cc1c(Nc2nccc3cc(CN4CC[C@@H](O)C4)cnc23)cccc1-c1cccc(NC(=O)c2ccc(CN3CC[C@@H](O)C3)cn2)c1Cl [Example 6, N-(2-chloro-3′-((3-(((R)-3-hydroxypyrrolidin-1-yl)methyl)-1,7-naphthyridin-8-yl)amino)-2′-methyl-[1,1′-biphenyl]-3-yl)-5-(((R)-3-hydroxypyrrolidin-1-yl)methyl)picolinamide]
11 | ≤ 0.01 µM | Cc1c(Nc2nccc3cc(CN4CC[C@@H](O)C4)cnc23)cccc1-c1cccc(Nc2ncnc3cc(CN(C)CCO)cnc23)c1C [Example 25, (R)-1-((8-(3′-(7-(((2-hydroxyethyl)(methyl)amino)methyl)pyrido[3,2-d]pyrimidin-4-ylamino)-2,2′-dimethylbiphenyl-3-ylamino)-1,7-naphthyridin-3-yl)methyl)pyrrolidin-3-ol]
12 | ≤ 0.01 µM | Cc1c(Nc2nccc3cc(CNCCO)cnc23)cccc1-c1cccc(NC(=O)c2ccc(CNC3(C(=O)O)CCC3)cn2)c1F [Example 2, 1-(((6-(2-fluoro-3′-(3-((2-hydroxyethylamino)methyl)-1,7-naphthyridin-8-ylamino)-2′-methylbiphenyl-3-ylcarbamoyl)pyridin-3-yl)methyl)amino)cyclobutanecarboxylic acid]
13 | ≤ 0.01 µM | Cc1c(Nc2nccc3cc(CN4CC[C@@H](O)C4)cnc23)cccc1-c1cccc(Nc2nccc3cc(CN4CC[C@@H](C(=O)O)C4)cnc23)c1C [Example 9, (R)-1-((8-((3′-((3-(((R)-3-hydroxypyrrolidin-1-yl)methyl)-1,7-naphthyridin-8-yl)amino)-2,2′-dimethyl-[1,1′-biphenyl]-3-yl)amino)-1,7-naphthyridin-3-yl)methyl)pyrrolidine-3-carboxylic acid]
14 | ≤ 0.01 µM | Cc1c(Nc2nccc3cc(CNCCO)cnc23)cccc1-c1cccc(Nc2nccc3cc(CN4CC[C@@H](O)C4)cnc23)c1C [Example 21, (R)-1-((8-(3′-(3-((2-hydroxyethylamino)methyl)-1,7-naphthyridin-8-ylamino)-2,2′-dimethylbiphenyl-3-ylamino)-1,7-naphthyridin-3-yl)methyl)pyrrolidin-3-ol]
15 | ≤ 0.01 µM | Cc1c(Nc2nccc3cc(CN4CC[C@@H](O)C4)cnc23)cccc1-c1cccc(NC(=O)c2nc3c(n2C)CCN(CC[C@H]2CC[C@@H](C(=O)O)CC2)C3)c1Cl (single isomer, unassigned) [Example 53]
16 | ≤ 0.01 µM | Cc1c(Nc2nccc3cc(CN4CC(C(=O)O)C4)cnc23)cccc1-c1cccc(-c2nc3c(s2)CN(C(=O)CN(C)C)C3)c1C [Example 88, 1-((8-((3′-(5-(dimethylglycyl)-5,6-dihydro-4H-pyrrolo[3,4-d]thiazol-2-yl)-2,2′-dimethyl-[1,1′-biphenyl]-3-yl)amino)-1,7-naphthyridin-3-yl)methyl)azetidine-3-carboxylic acid]
17 | ≤ 0.01 µM | Cc1c(Nc2nccc3cc(CNCCO)cnc23)cccc1-c1cccc(Nc2nccc3cc(CN4CC[C@@H](C(=O)O)C4)cnc23)c1C [Example 11, (R)-1-((8-((3′-((3-(((2-hydroxyethyl)amino)methyl)-1,7-naphthyridin-8-yl)amino)-2,2′-dimethyl-[1,1′-biphenyl]-3-yl)amino)-1,7-naphthyridin-3-yl)methyl)pyrrolidine-3-carboxylic acid]
18 | ≤ 0.01 µM | Cc1c(NC(=O)c2nc3c(n2C)CCN(C2CCC(C)(C(=O)O)CC2)C3)cccc1-c1cccc(Nc2nccc3cc(CN4CC[C@@H](O)C4)cnc23)c1C (single isomer, unassigned) [Example 62-peak2]
19 | ≤ 0.01 µM | OCCNCc1cnc2c(Nc3cccc(-c4cccc(Nc5nccc6cc(CN7CC[C@@H](O)C7)cnc56)c4Cl)c3Cl)nccn12 [Example 72, (R)-1-((8-(2,2′-dichloro-3′-(3-((2-hydroxyethylamino)methyl)imidazo[1,2-a]pyrazin-8-ylamino)biphenyl-3-ylamino)-1,7-naphthyridin-3-yl)methyl)pyrrolidin-3-ol]
20 | ≤ 0.01 µM | Cc1c(-c2nc3c(s2)CN(C(=O)CN2CC(O)C2)C3)cccc1-c1cccc(Nc2nccc3cc(CN4CC[C@@H](C(=O)O)C4)cnc23)c1Cl [Example 98, (R)-1-((8-((2-chloro-3′-(5-(2-(3-hydroxyazetidin-1-yl)acetyl)-5,6-dihydro-4H-pyrrolo[3,4-d]thiazol-2-yl)-2′-methyl-[1,1′-biphenyl]-3-yl)amino)-1,7-naphthyridin-3-yl)methyl)pyrrolidine-3-carboxylic acid]
21 | ≤ 0.01 µM | Cc1c(Nc2nccc3cc(CN4CC[C@@H](O)C4)cnc23)cccc1-c1cccc(NC(=O)c2nc3c(n2C)CCN(C[C@H]2CC[C@@H](C(=O)O)CC2)C3)c1Cl [Example 48, cis-4-((2-(2-chloro-3′-(3-(((R)-3-hydroxypyrrolidin-1-yl)methyl)-1,7-naphthyridin-8-ylamino)-2′-methylbiphenyl-3-ylcarbamoyl)-1-methyl-6,7-dihydro-1H-imidazo[4,5-c]pyridin-5(4H)-yl)methyl)cyclohexanecarboxylic acid]
22 | ≤ 0.01 µM | CCN(C)CC(=O)N1Cc2nc(-c3cccc(-c4cccc(Nc5nccc6cc(CN7CC8CC7CC8C(=O)O)cnc56)c4Cl)c3C)sc2C1 (stereo not shown) [Example 94, 2-((8-(2-chloro-3′-(5-(2-(ethyl(methyl)amino)acetyl)-5,6-dihydro-4H-pyrrolo[3,4-d]thiazol-2-yl)-2′-methylbiphenyl-3-ylamino)-1,7-naphthyridin-3-yl)methyl)-2-azabicyclo[2.2.1]heptane-5-carboxylic acid]
